Laboratory results as given in patent publication US11932634B2 (Gilead Sciences, Inc., priority 2021, dated 2024).

What was measured:
[1] = target: T1, human DGKα (Homo sapiens, UniProt P23743); assay: DGKα Biochemical Activity Assay (ADP-Glo);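 further: recombinant enzyme converting diacylglycerol in lipid micelles with ATP, ADP formed detected by luminescence, IC50 from a four-parameter nonlinear fit, geometric mean across experiments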
T1 construct: purchased Carna Biosciences'; inferred from the same paragraph's 'obtained from Carna Biosciences')
Text: Alternatively, the enzymatic activity of human DGKα was monitored in a biochemical assay in the presence or absence of compounds and using micelles containing 18:1 Diacylglycerol (DAG), 16:0-18:1 PS (POPS) and Octylglucoside as substrate. DGKα activity led to conversion of DAG and ATP to Phosphatidic Acid (PA) and ADP. Levels of ADP were monitored by bioluminescence using the ADP-Glo Kinase Assay (Promega) and were indicative of DGKα activity.
Ten nanoliters of test compound dissolved in DMSO at various concentrations were dispensed into a 384-well low volume nonbinding service white plates (Corning #3824) using a Labcyte Echo instrument. Recombinant DGKα Biosciences) in assay buffer (5 μL in 50 mM MOPS [3-(N-morpholino) propanesulfonic acid], pH 7.2; 0.0025% Triton X-100; 1 mM dithiothreitol; 5 mM MgCl2, 200 μM ATP) was added to the compound-containing plate and was incubated for 15 minutes at 25° C. A substrate solution (5 μL in 1.7 mM 1,2-dioleoyl-sn-glycerol [18:1 DAG], 13.5 mM 1-palmitoyl-2-oleoyl-sn-glycero-3-phospho-L-serine [16:0-18:1 PS](POPS), 2 μM CaCl2), 100 mM Octylglucoside (OG), 1 mM DTT) (obtained from Carna Biosciences) diluted in DGK ALPHA assay buffer was then added to start the reaction. Final concentrations were 1 nM DGKα, 100 μM ATP, 1 μM calcium chloride, 0.85 mM 1,2-dioleoyl-sn-glycerol (18:1 DAG), 6.75 mM 1-palmitoyl-2-oleoyl-sn-glycero-3-phospho-L-serine (16:0-18:1 PS) (POPS), 1 μM CaCl2), 50 mM Octylglucoside (OG) and 5 mM MgCl2. The reaction mixture was incubated at 25° C. for 1 hour. ADP-Glo Reagent (10 μL, 10 mM Mg added) provided by the kit was added to each well and incubated at 25° C. for 40 minutes. Then, 20 μL of Kinase Detection Reagent was added and incubated at 25° C. for 40 minutes. Luciferase activity of each well was measured via luminescence on an Envision plate reader (PerkinElmer).
Least squares curve fittings were performed using a four-parameter variable slope nonlinear regression model. […] IC50 values from multiple experiments were averaged by geometric mean and the standard deviation was calculated.

[2] = tested on: Jurkat NFκB-luciferase cells; assay: Jurkat NFκB-Luciferase Assay; type: cell-based; conditions: Homo sapiens; Jurkat NFκB-luciferase cells activated with anti-CD3 antibody (OKT3), 2.5 hrs at 37° C., One-Glo Ex; geometric mean; read-out: DGK NFKb Luciferase EC50;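 further: bioluminescence read-out normalized to DMSO basal activation and to maximum enhancement at 1 µM compound, rising signal indicating stronger T-cell activation through DGKα inhibition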

T1 sequence (P23743 whole entry): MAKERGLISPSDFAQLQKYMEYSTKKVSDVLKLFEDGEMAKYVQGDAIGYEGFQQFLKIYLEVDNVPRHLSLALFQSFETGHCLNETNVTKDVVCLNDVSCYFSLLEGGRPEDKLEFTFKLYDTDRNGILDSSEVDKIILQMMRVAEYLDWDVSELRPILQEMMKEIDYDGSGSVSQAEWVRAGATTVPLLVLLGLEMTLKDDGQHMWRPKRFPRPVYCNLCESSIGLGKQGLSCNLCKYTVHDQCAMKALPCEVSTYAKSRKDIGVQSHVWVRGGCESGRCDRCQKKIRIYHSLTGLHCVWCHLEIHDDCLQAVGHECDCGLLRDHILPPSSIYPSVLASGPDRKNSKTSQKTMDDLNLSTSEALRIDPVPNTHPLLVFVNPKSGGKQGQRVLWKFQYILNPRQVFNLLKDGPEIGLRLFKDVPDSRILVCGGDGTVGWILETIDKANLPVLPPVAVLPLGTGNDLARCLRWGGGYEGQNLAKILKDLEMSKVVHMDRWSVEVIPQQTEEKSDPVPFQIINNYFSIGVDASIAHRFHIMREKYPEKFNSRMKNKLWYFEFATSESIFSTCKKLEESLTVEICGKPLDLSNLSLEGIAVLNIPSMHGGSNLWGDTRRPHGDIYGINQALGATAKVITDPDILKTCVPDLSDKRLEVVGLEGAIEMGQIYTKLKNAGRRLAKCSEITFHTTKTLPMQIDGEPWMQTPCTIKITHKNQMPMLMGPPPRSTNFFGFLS

SMILES | IC50 [1] [nM] | EC50 [2] [nM]
CN(c1cccc(-c2ccc(C3CC3)cc2)c1)c1nc(=O)[nH]c2cc(Cl)ccc12 [Example 1, 7-chloro-4-[3-(4-cyclopropylphenyl)-N-methyl-anilino]-1H-quinazolin-2-one] | 166 | 1.36
CN(c1cccc(-c2ccc(C3CC3)cc2)c1)c1nc(=O)n(C)c2cc(Cl)ccc12 [Example 2, 7-chloro-4-[3-(4-cyclopropylphenyl)-N-methyl-anilino]-1-methyl-quinazolin-2-one] | 15.1 | 0.479
CN(c1cccc(C#CC(C)(C)O)c1)c1nc(=O)[nH]c2cc(Cl)ccc12 [Example 3, 7-chloro-4-[3-(3-hydroxy-3-methyl-but-1-ynyl)-N-methyl-anilino]-1H-quinazolin-2-one] | 96.3 | 10.7
CN(c1cccc(C#CC(C)(C)O)c1)c1nc(=O)n(C)c2cc(Cl)ccc12 [Example 4, 7-chloro-4-[3-(3-hydroxy-3-methyl-but-1-ynyl)-N-methyl-anilino]-1-methyl-quinazolin-2-one] | 17 | 4.56
CN(c1cccc(C#CC2(C(F)(F)F)CC2)c1)c1nc(=O)[nH]c2cc(Cl)ccc12 [Example 5, 7-chloro-4-[N-methyl-3-[2-[1-(trifluoromethyl)cyclopropyl]ethynyl]anilino]-1H-quinazolin-2-one] | 53.1 | 1.01
CN(c1cccc(-c2ccc(N3CCCC3)nc2)c1)c1nc(=O)[nH]c2cc(Cl)ccc12 [Example 6, 7-chloro-4-[N-methyl-3-(6-pyrrolidin-1-yl-3-pyridyl)anilino]-1H-quinazolin-2-one] | 84.5 | 2.24
CN(c1cccc(-c2ccc(N3CCCC3)nc2)c1)c1nc(=O)n(C)c2cc(Cl)ccc12 [Example 7, 7-chloro-1-methyl-4-[N-methyl-3-(6-pyrrolidin-1-yl-3-pyridyl)anilino]quinazolin-2-one] | 17.9 | 0.675
CN(c1cccc(C#CC2(C(F)(F)F)CC2)c1)c1nc(=O)n(C)c2cc(Cl)ccc12 [Example 8, 7-chloro-1-methyl-4-[N-methyl-3-[2-[1-(trifluoromethyl)cyclopropyl]ethynyl]anilino]quinazolin-2-one] | 12.4 | 0.489
CN(c1cccc(-c2ccc(N3CCCS3(=O)=O)cc2)c1)c1nc(=O)[nH]c2cc(Cl)ccc12 [Example 9, 7-chloro-4-[3-[4-(1,1-dioxo-1,2-thiazolidin-2-yl)phenyl]-N-methyl-anilino]-1H-quinazolin-2-one] | 33.3 | 5.03
CN(c1cccc(-c2ccc(N3CCCS3(=O)=O)cc2)c1)c1nc(=O)n(C)c2cc(Cl)ccc12 [Example 10, 7-chloro-4-[3-[4-(1,1-dioxo-1,2-thiazolidin-2-yl)phenyl]-N-methyl-anilino]-1-methyl-quinazolin-2-one] | 14 | 1.51
CN(c1cccc(-c2cnc(C3CC3)cn2)c1)c1nc(=O)n(C)c2cc(Cl)ccc12 [Example 11, 7-chloro-4-[3-(5-cyclopropylpyrazin-2-yl)-N-methyl-anilino]-1-methyl-quinazolin-2-one] | 4.02 | 0.709
CN(c1cncc(C#CC2(C(F)(F)F)CC2)n1)c1nc(=O)n(C)c2cc(Cl)ccc12 [Example 12, 7-chloro-1-methyl-4-[methyl-[6-[2-[1-(trifluoromethyl)cyclopropyl]ethynyl]pyrazin-2-yl]amino]quinazolin-2-one] | 2.91 | 1.04
CN(c1cncc(C#CC2(C(F)(F)F)CC2)n1)c1nc(=O)[nH]c2cc(Cl)ccc12 [Example 13, 7-chloro-4-[methyl-[6-[2-[1-(trifluoromethyl)cyclopropyl]ethynyl]pyrazin-2-yl]amino]-1H-quinazolin-2-one] | 20.6 | 1.16
CN(c1cc(F)cc(C#CC2(C(F)(F)F)CC2)c1)c1nc(=O)[nH]c2cc(Cl)ccc12 [Example 14, 7-chloro-4-[3-fluoro-N-methyl-5-[2-[1-(trifluoromethyl)cyclopropyl]ethynyl]anilino]-1H-quinazolin-2-one] | 138 | 0.788
[2H]C([2H])([2H])n1c(=O)nc(N(C)c2cc(F)cc(C#CC3(C(F)(F)F)CC3)c2)c2ccc(Cl)cc21 [Example 15, 7-chloro-4-[3-fluoro-N-methyl-5-[2-[1-(trifluoromethyl)cyclopropyl]ethynyl]anilino]-1-(trideuteriomethyl)quinazolin-2-one] | 27.3 | 0.557
O=c1nc(N(CC(F)F)c2cc(F)cc(C#CC3(C(F)(F)F)CC3)c2)c2c(F)cccc2[nH]1 [Example 16, 4-[N-(2,2-difluoroethyl)-3-fluoro-5-[2-[1-(trifluoromethyl)cyclopropyl]ethynyl]anilino]-5-fluoro-1H-quinazolin-2-one] | 252 | 1.19
O=c1nc(N(CC(F)F)c2cc(F)cc(-c3cnc(C4CC4)cn3)c2)c2c(F)cccc2[nH]1 [Example 17, 4-[3-(5-cyclopropylpyrazin-2-yl)-N-(2,2-difluoroethyl)-5-fluoro-anilino]-5-fluoro-1H-quinazolin-2-one] | 30.1 | 1.23

SMILES | IC50 [1] [nM] | EC50 [2] [nM]
O=c1nc(N(CC(F)F)c2cc(F)cc(-c3ccc(C(F)F)nc3)c2)c2c(F)cccc2[nH]1 [Example 18, 4-[N-(2,2-difluoroethyl)-3-[6-(difluoromethyl)-3-pyridyl]-5-fluoro-anilino]-5-fluoro-1H-quinazolin-2-one] | 54.4 | 2.63
O=c1nc(N2CCCc3c(C#CC4(C(F)(F)F)CC4)cccc32)c2c(F)cccc2[nH]1 [Example 19, 5-fluoro-4-[5-[2-[1-(trifluoromethyl)cyclopropyl]ethynyl]-3,4-dihydro-2H-quinolin-1-yl]-1H-quinazolin-2-one] | 62.5 | 0.63
CCn1c(=O)nc(N2CCCc3c(C#CC4(C(F)(F)F)CC4)cccc32)c2c(F)cccc21 [Example 20, 1-ethyl-5-fluoro-4-[5-[2-[1-(trifluoromethyl)cyclopropyl]ethynyl]-3,4-dihydro-2H-quinolin-1-yl]quinazolin-2-one] | 293 | 0.875
[2H]C([2H])([2H])n1c(=O)nc(N2CCCc3c(C#CC4(C(F)(F)F)CC4)cccc32)c2c(F)cccc21 [Example 21, 5-fluoro-1-(trideuteriomethyl)-4-[5-[2-[1-(trifluoromethyl)cyclopropyl]ethynyl]-3,4-dihydro-2H-quinolin-1-yl]quinazolin-2-one] | 11.3 | 0.232
[2H]C([2H])([2H])n1c(=O)nc(N(CC(F)F)c2cc(F)cc(C#CC3(C(F)(F)F)CC3)c2)c2c(F)cccc21 [Example 22, 4-[N-(2,2-difluoroethyl)-3-fluoro-5-[2-[1-(trifluoromethyl)cyclopropyl]ethynyl]anilino]-5-fluoro-1-(trideuteriomethyl)quinazolin-2-one] | 55.6 | 1.61
O=c1nc(N(CC(F)(F)F)c2cccc(C#CC3(C(F)(F)F)CC3)c2)c2ccc(Cl)cc2[nH]1 [Example 24, 7-chloro-4-[N-(2,2,2-trifluoroethyl)-3-[2-[1-(trifluoromethyl)cyclopropyl]ethynyl]anilino]-1H-quinazolin-2-one] | 176 | 2.38
[2H]C([2H])([2H])n1c(=O)nc(N(CC(F)(F)F)c2cccc(C#CC3(C(F)(F)F)CC3)c2)c2ccc(Cl)cc21 [Example 25, 7-chloro-1-(trideuteriomethyl)-4-[N-(2,2,2-trifluoroethyl)-3-[2-[1-(trifluoromethyl)cyclopropyl]ethynyl]anilino]quinazolin-2-one] | 58.8 | 0.405
O=c1nc(N(CC(F)F)c2cc(F)cc(C#CC3(C(F)(F)F)CC3)c2)c2ccc(Cl)cc2[nH]1 [Example 26, 7-chloro-4-[N-(2,2-difluoroethyl)-3-fluoro-5-[2-[1-(trifluoromethyl)cyclopropyl]ethynyl]anilino]-1H-quinazolin-2-one] | 314 | 1.07
O=c1nc(N(CC(F)(F)F)c2cc(F)cc(C#CC3(C(F)(F)F)CC3)c2)c2cc(F)ccc2[nH]1 [Example 27, 6-fluoro-4-[3-fluoro-N-(2,2,2-trifluoroethyl)-5-[2-[1-(trifluoromethyl)cyclopropyl]ethynyl]anilino]-1H-quinazolin-2-one] | 97.3 | 3.27
Cn1c(=O)nc(N(CC(F)F)c2cc(F)cc(C#CC3(C(F)(F)F)CC3)c2)c2ccc(Cl)cc21 [Example 28, 7-chloro-4-[N-(2,2-difluoroethyl)-3-fluoro-5-[2-[1-(trifluoromethyl)cyclopropyl]ethynyl]anilino]-1-methyl-quinazolin-2-one] | 169 | 1.15
O=c1nc(N(CC(F)(F)F)c2cc(F)cc(C#CC3(C(F)(F)F)CC3)c2)c2ccc(Cl)cc2[nH]1 [Example 29, 7-chloro-4-[3-fluoro-N-(2,2,2-trifluoroethyl)-5-[2-[1-(trifluoromethyl)cyclopropyl]ethynyl]anilino]-1H-quinazolin-2-one] | 849 | 1.88
Cn1c(=O)nc(N(CC(F)(F)F)c2cc(F)cc(C#CC3(C(F)(F)F)CC3)c2)c2cc(F)ccc21 [Example 30, 6-fluoro-4-[3-fluoro-N-(2,2,2-trifluoroethyl)-5-[2-[1-(trifluoromethyl)cyclopropyl]ethynyl]anilino]-1-methyl-quinazolin-2-one] | 27.1 | 1.94
O=c1nc(N(CC(F)F)c2ccnc(C#CC3(C(F)(F)F)CC3)c2)c2c(F)c(F)ccc2[nH]1 [Example 78] |  | 2.55
O=c1nc(N2CCOCc3c(C#CC4(C(F)(F)F)CC4)cccc32)c2c(F)cccc2[nH]1 [Example 90] |  | 0.442
[2H]C([2H])([2H])n1c(=O)nc(N2CCOCc3c(C#CC4(C(F)(F)F)CC4)cccc32)c2c(F)c(F)ccc21 [Example 96] |  | 0.559
O=c1nc(N2CCCCc3c(C#CC4(C(F)(F)F)CC4)cncc32)c2c(F)cccc2[nH]1 [Example 153] |  | 1.62
CC1(C#Cc2cccc3c2COCCN3c2nc(=O)[nH]c3cccc(F)c23)CC1 [Example 154] |  | 0.783
